According to PubChem BioAssay AID1259407 (Chemical Carcinogenesis Research Information System (CCRIS), 2018):
Activity calls are given as the source filed them. No rule for the calls is given here.

System: CCRIS mutagenicity, Ames/micronucleus/aberration tests
Assay: CCRIS mutagenicity studies

Cc1c2ccccc2c(C)c2c1ccc1ccccc12
mutagenic call (End Point: IN VITRO CHROMOSOMAL ABERRATIONS, Test System: CHL/IU CELLS, Metabolic Activation: RAT, LIVER, S-9, PHENOBARBITAL AND 5,6-BENZOFLAVONE): active; positive (structural changes) | mutagenic call (End Point: IN VITRO MICRONUCLEUS, Test System: CHL/IU CELLS, Metabolic Activation: RAT, LIVER, S-9, PHENOBARBITAL AND 5,6-BENZOFLAVONE): active; positive | mutagenic call (End Point: IN VITRO MICRONUCLEUS, Test System: CHO CELLS, Metabolic Activation: RAT, LIVER, S-9, AROCLOR 1254): active; positive | mutagenic call (End Point: IN VITRO MICRONUCLEUS, Test System: V79 CELLS, Metabolic Activation: RAT, LIVER, S-9, AROCLOR 1254): active; positive | mutagenic call (End Point: IN VIVO CHROMOSOMAL ABERRATIONS, Test System: MAMMARY GLAND CELLS, USING DUAL PROBE FISH, Species: RAT, Strain/Sex: SPRAGUE-DAWLEY/FEMALE, Route: INTRAGASTRIC): active; positive (hyperdiploidy and polyploidy) | mutagenic call (End Point: IN VIVO MICRONUCLEUS, Test System: BLOOD ERYTHROCYTES, Species: MOUSE, Strain/Sex: CD-1/MALE, Route: ORAL): active; positive | mutagenic call (End Point: IN VIVO MICRONUCLEUS, Test System: MAMMARY GLAND CELLS, Species: RAT, Strain/Sex: SPRAGUE-DAWLEY/FEMALE, Route: INTRAGASTRIC): inactive; negative | mutagenic call (Test System: AMES SALMONELLA TYPHIMURIUM, Strain/Indicator: TA97, Metabolic Activation: NONE, Method: STANDARD PLATE): active; positive | mutagenic call (Test System: AMES SALMONELLA TYPHIMURIUM, Strain/Indicator: TA97, Metabolic Activation: RAT, LIVER, S-9, PCB, Method: STANDARD PLATE): active; positive | mutagenic call (Test System: AMES SALMONELLA TYPHIMURIUM, Strain/Indicator: TA98, Metabolic Activation: NONE, Method: SPIRAL ASSAY): active; positive | mutagenic call (Test System: AMES SALMONELLA TYPHIMURIUM, Strain/Indicator: TA98, Metabolic Activation: RAT, LIVER, S-9, AROCLOR 1254, Method: SPIRAL ASSAY): active; positive | mutagenic call (Test System: AMES SALMONELLA TYPHIMURIUM, Strain/Indicator: TA98, Metabolic Activation: RAT, LIVER, S-9, AROCLOR 1254, Method: STANDARD PLATE): active; positive | mutagenic call (Test System: AMES SALMONELLA TYPHIMURIUM, Strain/Indicator: TA98, Metabolic Activation: RAT, LIVER, S-9, PCB, Method: STANDARD PLATE): active; positive | mutagenic call (Test System: AMES SALMONELLA TYPHIMURIUM, Strain/Indicator: TA98, Method: STANDARD PLATE): active; positive | mutagenic call (Test System: AMES SALMONELLA TYPHIMURIUM, Strain/Indicator: TA100, Metabolic Activation: MOUSE, LIVER, MICROSOMES, BENZO[E]PYRENE AND TCDD, Method: STANDARD PLATE): active; positive | mutagenic call (Test System: AMES SALMONELLA TYPHIMURIUM, Strain/Indicator: TA100, Metabolic Activation: NONE, Method: SPIRAL ASSAY): active; positive | mutagenic call (Test System: AMES SALMONELLA TYPHIMURIUM, Strain/Indicator: TA100, Metabolic Activation: RAT, INTACT HEPATOCYTES, AROCLOR 1254, Method: PREINCUBATION): active; positive | mutagenic call (Test System: AMES SALMONELLA TYPHIMURIUM, Strain/Indicator: TA100, Metabolic Activation: RAT, LIVER, MICROSOMES, 3-METHYLCHOLANTHRENE, Method: PREINCUBATION): active; positive | mutagenic call (Test System: AMES SALMONELLA TYPHIMURIUM, Strain/Indicator: TA100, Metabolic Activation: RAT, LIVER, MICROSOMES, SODIUM PHENOBARBITAL, Method: PREINCUBATION): active; positive | mutagenic call (Test System: AMES SALMONELLA TYPHIMURIUM, Strain/Indicator: TA100, Metabolic Activation: RAT, LIVER, MICROSOMES, SUDAN III, Method: PREINCUBATION): active; positive | mutagenic call (Test System: AMES SALMONELLA TYPHIMURIUM, Strain/Indicator: TA100, Metabolic Activation: RAT, LIVER, MICROSOMES, Method: PREINCUBATION): active; positive | mutagenic call (Test System: AMES SALMONELLA TYPHIMURIUM, Strain/Indicator: TA100, Metabolic Activation: RAT, LIVER, S-9, AROCLOR 1254, Method: SPIRAL ASSAY): active; positive | mutagenic call (Test System: AMES SALMONELLA TYPHIMURIUM, Strain/Indicator: TA100, Metabolic Activation: RAT, LIVER, S-9, AROCLOR 1254, Method: STANDARD PLATE): active; positive | mutagenic call (Test System: AMES SALMONELLA TYPHIMURIUM, Strain/Indicator: TA100, Metabolic Activation: RAT, LIVER, S-9, EUGENOL, Method: PREINCUBATION): active; positive | mutagenic call (Test System: AMES SALMONELLA TYPHIMURIUM, Strain/Indicator: TA100, Metabolic Activation: RAT, LIVER, S-9, KC500 OR PHENOBARBITAL, Method: LIQUID SUSPENSION): active; positive | mutagenic call (Test System: AMES SALMONELLA TYPHIMURIUM, Strain/Indicator: TA100, Metabolic Activation: RAT, LIVER, S-9, PCB, Method: STANDARD PLATE): active; positive | mutagenic call (Test System: AMES SALMONELLA TYPHIMURIUM, Strain/Indicator: TA100, Metabolic Activation: RAT, LIVER, S-9, PHENOBARBITAL, Method: STANDARD PLATE): active; positive | mutagenic call (Test System: AMES SALMONELLA TYPHIMURIUM, Strain/Indicator: TA100, Metabolic Activation: RAT, LIVER, S-9, Method: PREINCUBATION): active; positive | mutagenic call (Test System: AMES SALMONELLA TYPHIMURIUM, Strain/Indicator: TA100, Metabolic Activation: RAT, NADPH-FORTIFIED HOMOGENIZED HEPATOCYTES, AROCLOR 1254, Method: PREINCUBATION): active; positive | mutagenic call (Test System: AMES SALMONELLA TYPHIMURIUM, Strain/Indicator: TA100, Metabolic Activation: RAT, SONICATED HEPATOCYTES, AROCLOR 1254, Method: PREINCUBATION): active; positive | mutagenic call (Test System: AMES SALMONELLA TYPHIMURIUM, Strain/Indicator: TA100, Method: STANDARD PLATE): active; positive | mutagenic call (Test System: AMES SALMONELLA TYPHIMURIUM, Strain/Indicator: TA1535, Metabolic Activation: NONE, Method: SPIRAL ASSAY): inactive; negative | mutagenic call (Test System: AMES SALMONELLA TYPHIMURIUM, Strain/Indicator: TA1535, Metabolic Activation: NONE, Method: STANDARD PLATE): inactive; negative
